What was measured:
RXRγ [1] = biological target: T1, RXRγ (UniProt P28705); test: holoreceptor transactivation assay; type: cell-based; settings: for EC50: NA = Not Active, read-out: RXR Trans. EC50 (nM) Y; for % efficacy, RXR Trans. Y: relative to 10^−6 M AGN 194204
T1 sequence (P28705 1-463): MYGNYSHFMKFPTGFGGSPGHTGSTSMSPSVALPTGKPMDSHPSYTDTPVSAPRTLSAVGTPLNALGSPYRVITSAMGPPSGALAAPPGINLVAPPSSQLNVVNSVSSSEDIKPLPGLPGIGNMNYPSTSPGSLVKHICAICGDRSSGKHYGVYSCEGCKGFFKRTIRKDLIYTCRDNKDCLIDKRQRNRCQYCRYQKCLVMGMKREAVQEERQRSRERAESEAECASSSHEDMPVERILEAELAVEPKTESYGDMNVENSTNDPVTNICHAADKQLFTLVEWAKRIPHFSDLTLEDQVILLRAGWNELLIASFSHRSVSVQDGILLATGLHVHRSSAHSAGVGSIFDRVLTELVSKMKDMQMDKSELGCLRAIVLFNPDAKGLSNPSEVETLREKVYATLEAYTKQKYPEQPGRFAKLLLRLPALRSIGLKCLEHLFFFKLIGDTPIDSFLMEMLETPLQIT
Description: (§2) The results obtained in this assay are expressed in EC50 numbers, as they are also in the chimeric receptor transactivation assay. The results of ligand binding assay are expressed in Kd numbers.
(§3) Particularly, the transactivation data pertaining to RAR receptors were obtained in the chimeric assay, and the data pertaining to transactivation of RXR receptors were obtained in the holoreceptor transactivation assay.

RARβ [2] = biological target: T2, RARβ (Homo sapiens, UniProt P10826); test: ligand binding assay; settings: read-out: RAR Bind. Ki (nM) β
T2 sequence (P10826 1-455): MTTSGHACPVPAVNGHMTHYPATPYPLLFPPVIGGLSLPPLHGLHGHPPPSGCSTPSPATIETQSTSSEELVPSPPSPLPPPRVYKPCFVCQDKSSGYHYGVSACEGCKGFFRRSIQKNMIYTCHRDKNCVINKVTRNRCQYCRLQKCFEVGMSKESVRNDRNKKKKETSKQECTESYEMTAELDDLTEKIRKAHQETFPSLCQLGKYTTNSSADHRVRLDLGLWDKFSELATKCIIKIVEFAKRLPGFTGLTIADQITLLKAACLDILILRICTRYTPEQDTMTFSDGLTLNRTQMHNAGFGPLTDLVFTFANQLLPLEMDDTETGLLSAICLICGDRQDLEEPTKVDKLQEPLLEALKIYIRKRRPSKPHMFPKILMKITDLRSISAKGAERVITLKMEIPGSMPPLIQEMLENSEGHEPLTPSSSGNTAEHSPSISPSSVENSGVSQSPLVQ
Description: as §2, §3

RARγ [3] = biological target: T3, RARγ (Homo sapiens, UniProt P13631); test: ligand binding assay; settings: read-out: RAR Bind. Ki (nM) Y
T3 sequence (P13631 1-454): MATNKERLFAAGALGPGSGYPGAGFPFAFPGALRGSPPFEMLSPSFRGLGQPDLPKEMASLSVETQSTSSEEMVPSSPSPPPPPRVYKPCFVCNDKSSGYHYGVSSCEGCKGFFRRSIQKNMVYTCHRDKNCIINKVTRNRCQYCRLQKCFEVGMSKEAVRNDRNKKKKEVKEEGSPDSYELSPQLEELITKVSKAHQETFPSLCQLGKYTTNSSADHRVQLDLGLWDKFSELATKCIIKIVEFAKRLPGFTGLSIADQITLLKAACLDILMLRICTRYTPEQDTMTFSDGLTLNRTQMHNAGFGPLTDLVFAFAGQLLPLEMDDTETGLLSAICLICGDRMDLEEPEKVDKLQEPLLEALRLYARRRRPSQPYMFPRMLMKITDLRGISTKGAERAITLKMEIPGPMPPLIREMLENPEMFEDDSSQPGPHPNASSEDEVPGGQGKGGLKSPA
Description: as §2, §3

RXRα [4] = biological target: T4, RXRα (Homo sapiens, UniProt P19793); test: ligand binding assay
T4 sequence (P19793 1-462): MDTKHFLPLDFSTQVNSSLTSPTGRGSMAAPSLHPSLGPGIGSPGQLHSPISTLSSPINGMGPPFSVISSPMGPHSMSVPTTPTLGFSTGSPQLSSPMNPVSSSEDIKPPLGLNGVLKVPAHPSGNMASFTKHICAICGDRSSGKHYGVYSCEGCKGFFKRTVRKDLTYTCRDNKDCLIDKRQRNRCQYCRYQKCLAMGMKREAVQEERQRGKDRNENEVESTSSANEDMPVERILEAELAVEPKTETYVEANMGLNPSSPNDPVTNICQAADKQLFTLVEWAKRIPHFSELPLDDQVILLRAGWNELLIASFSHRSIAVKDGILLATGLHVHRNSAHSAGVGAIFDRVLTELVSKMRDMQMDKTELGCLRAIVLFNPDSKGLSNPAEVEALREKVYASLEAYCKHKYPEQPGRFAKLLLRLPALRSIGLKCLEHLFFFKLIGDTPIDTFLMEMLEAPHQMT
Description: as §2, §3

RXRβ [5] = biological target: T5, RXRβ (UniProt P28704); test: ligand binding assay; settings: read-out: RXR Bind Ki (nM) β
T5 sequence (P28704 1-520): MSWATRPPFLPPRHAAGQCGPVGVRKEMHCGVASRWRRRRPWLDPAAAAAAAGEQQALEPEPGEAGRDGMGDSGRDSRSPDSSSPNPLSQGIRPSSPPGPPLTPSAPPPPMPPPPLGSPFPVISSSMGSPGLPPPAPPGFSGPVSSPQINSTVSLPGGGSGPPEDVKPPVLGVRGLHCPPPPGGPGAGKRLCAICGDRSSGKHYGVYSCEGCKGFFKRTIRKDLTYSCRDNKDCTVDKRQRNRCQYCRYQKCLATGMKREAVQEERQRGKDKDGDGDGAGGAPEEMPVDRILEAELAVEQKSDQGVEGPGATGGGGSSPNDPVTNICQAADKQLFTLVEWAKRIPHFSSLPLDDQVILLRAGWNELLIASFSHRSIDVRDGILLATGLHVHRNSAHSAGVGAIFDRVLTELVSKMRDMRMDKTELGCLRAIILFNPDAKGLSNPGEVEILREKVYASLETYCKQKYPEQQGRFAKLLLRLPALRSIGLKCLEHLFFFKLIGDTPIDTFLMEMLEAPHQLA
Description: as §2, §3

RXRβ [6] = biological target: T5, RXRβ; test: holoreceptor transactivation assay; type: cell-based; settings: for EC50: NA = Not Active, read-out: RXR Trans. EC50 (nM) β; for % efficacy, RXR Trans. β: relative to 10^−6 M AGN 194204
Description: as §2, §3

RXRγ [7] = biological target: T1, RXRγ; test: ligand binding assay; settings: read-out: RXR Bind Ki (nM) Y
RXRα [8] = biological target: T4, RXRα; test: holoreceptor transactivation assay; settings: for Emax: read-out: % efficacy, RXR Trans. α
Description: as §2, §3

RARα = biological target: T6, RARα (Homo sapiens, UniProt P10276); test: chimeric receptor transactivation assay; type: cell-based
T6 sequence (P10276 1-462): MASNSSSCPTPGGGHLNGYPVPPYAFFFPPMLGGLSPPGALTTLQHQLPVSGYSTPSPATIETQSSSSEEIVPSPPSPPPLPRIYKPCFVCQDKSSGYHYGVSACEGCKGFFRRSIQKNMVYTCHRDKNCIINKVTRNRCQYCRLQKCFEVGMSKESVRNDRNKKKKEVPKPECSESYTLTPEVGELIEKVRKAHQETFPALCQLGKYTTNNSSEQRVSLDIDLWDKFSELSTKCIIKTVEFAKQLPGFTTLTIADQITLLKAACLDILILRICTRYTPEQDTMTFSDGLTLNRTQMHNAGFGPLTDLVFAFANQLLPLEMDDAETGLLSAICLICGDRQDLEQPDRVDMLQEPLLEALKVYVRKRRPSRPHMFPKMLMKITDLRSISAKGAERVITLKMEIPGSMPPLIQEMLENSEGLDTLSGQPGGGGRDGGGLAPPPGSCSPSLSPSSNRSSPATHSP
Description: (§1) The specification of U.S. Pat. No. 5,455,265 is hereby expressly incorporated by reference.

RARβ [9] = biological target: T7, RARβ (Homo sapiens, UniProt P10826); test: cell-based; type: cell-based; settings: for EC50: NA = Not Active, read-out: RAR Trans. EC50 (nM) β; for Emax: relative to 10^−6 M ATRA, read-out: % efficacy, RAR Trans. β
T7 sequence (P10826 154-455): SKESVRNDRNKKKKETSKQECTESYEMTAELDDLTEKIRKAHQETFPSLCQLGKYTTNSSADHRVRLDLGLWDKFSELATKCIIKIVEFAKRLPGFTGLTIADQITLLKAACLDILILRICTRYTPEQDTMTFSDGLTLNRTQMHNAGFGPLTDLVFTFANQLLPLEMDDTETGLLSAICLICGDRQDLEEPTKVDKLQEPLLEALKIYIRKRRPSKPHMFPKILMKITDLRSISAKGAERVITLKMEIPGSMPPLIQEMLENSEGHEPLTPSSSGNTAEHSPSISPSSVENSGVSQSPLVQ
Description: as §1

RARγ [10] = biological target: T8, RARγ (Homo sapiens, UniProt P13631); type: cell-based
T8 sequence (P13631 156-454): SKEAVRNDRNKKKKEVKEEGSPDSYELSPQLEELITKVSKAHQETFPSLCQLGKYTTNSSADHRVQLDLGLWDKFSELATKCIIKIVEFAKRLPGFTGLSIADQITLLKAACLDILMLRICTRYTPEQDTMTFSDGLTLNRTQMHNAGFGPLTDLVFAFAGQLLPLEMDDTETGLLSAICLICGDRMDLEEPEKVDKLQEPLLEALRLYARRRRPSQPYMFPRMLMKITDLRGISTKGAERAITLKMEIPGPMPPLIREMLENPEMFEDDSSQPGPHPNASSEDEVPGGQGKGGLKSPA
Description: as §1

Compound | EC50 (RXRγ [1]) [nM] | % efficacy, RXR Trans. Y (RXRγ [1]) | Ki (RARβ [2]) [nM] | Ki (RARγ [3]) [nM] | Ki (RXRα [4]) [nM] | Ki (RXRβ [5]) [nM] | EC50 (RXRβ [6]) [nM] | % efficacy, RXR Trans. β (RXRβ [6]) | Ki (RXRγ [7]) [nM] | EC50 (RXRα [8]) [nM] | Emax (RXRα [8]) [%] | EC50 (RARα; NA = Not Active, read-out: RAR Trans. EC50 (nM) α) [nM] | Emax (RARα; relative to 10^−6 M ATRA, read-out: % efficacy, RAR Trans. α) [%] | EC50 (RARβ [9]) [nM] | Emax (RARβ [9]) [%] | EC50 (RARγ [10]; NA = Not Active, read-out: RAR Trans. EC50 (nM) Y) [nM] | % efficacy, RAR Trans. Y (RARγ [10]; relative to 10^−6 M ATRA)
CCN(c1ccc2c(c1)C(C)=CCC2(C)C)c1ccc(C(=O)O)cn1 [Compound 170, 6-[Ethyl-(5,5,8-trimethyl-5,6-dihydro-naphthalen-2-yl)-amino]-nicotinic acid] | 67 | (127) % | > 10000 | > 10000 | 64 | 190 | 379 | (110) % | 61 | 33 | 113 | – | – | – | – | – | –
CCCN(c1ccc(C(=O)O)cc1)c1cc2c(cc1C)C(C)=CCC2(C)C [Compound 46, 4-[n-Propyl(3,5,8,8-tetramethyl-7,8-dihydronaphthalen-2-yl)amino]benzoic acid] | – | (65) % | > 10000 | > 10000 | > 10000 | > 10000 | > 1000 | (8) % | > 10000 | – | 55 | – | – | – | – | – | –
CCN(c1ccc(C(=O)O)cc1)c1cc2c(cc1C)C(C)(C)CC=C2C(C)(C)C [Compound 26, 4-[Ethyl(8-t-butyl-3,5,5-trimethyl-5,6-dihydronaphthalen-2-yl)amino]benzoic acid] | 0.5 | (90) % | 1300 | 4000 | 7 | 30 | 4 | (84) % | – | 0.3 | 85 | 0.5 | 10 | – | – | – | –
C=CCN(c1ccc(C(=O)O)cc1)c1ccc2c(c1)C(C(C)(C)C)=CCC2(C)C [Compound 90, 4-[(8-t-Butyl-5,5-dimethyl-5,6-dihydronaphthalen-2-yl)(prop-2-en-yl)lamino]-benzoic acid] | 12 | (102) % | > 10000 | > 10000 | 39 | 84 | 76 | (110) % | 68 | 12 | 112 | – | – | > 1000 | 15 | > 1000 | (5) %

Now from value to molecule:

EC50 (RXRγ [1]) [nM] | % efficacy, RXR Trans. Y (RXRγ [1]) | Ki (RARβ [2]) [nM] | Ki (RARγ [3]) [nM] | Ki (RXRα [4]) [nM] | Ki (RXRβ [5]) [nM] | EC50 (RXRβ [6]) [nM] | % efficacy, RXR Trans. β (RXRβ [6]) | Ki (RXRγ [7]) [nM] | EC50 (RXRα [8]) [nM] | Emax (RXRα [8]) [%] | EC50 (RARα; NA = Not Active, read-out: RAR Trans. EC50 (nM) α) [nM] | Emax (RARα; relative to 10^−6 M ATRA, read-out: % efficacy, RAR Trans. α) [%] | EC50 (RARβ [9]) [nM] | Emax (RARβ [9]) [%] | EC50 (RARγ [10]; NA = Not Active, read-out: RAR Trans. EC50 (nM) Y) [nM] | % efficacy, RAR Trans. Y (RARγ [10]; relative to 10^−6 M ATRA) | Compound
2 | (101) % | 7500 | > 10000 | 5 | 15 | 8 | (63) % | 37 | 0.5 | 64 | – | – | – | – | – | – | CCN(c1ccc(C(=O)O)cc1)c1cc2c(cc1OC)C(C)(C)CC=C2C(C)C [Compound 148, 4-[Ethyl-(8-isopropyl-3-methoxy-5,5-dimethyl-5,6-dihydronaphthalen-2-yl)amino]benzoic acid]
– | – | 1200 | 13000 | 8 | 46 | – | – | 99 | – | – | – | – | > 1000 | 32 | – | – | CCCN(c1ccc(C(=O)O)cc1)c1cc2c(cc1OCc1ccccc1)C(C)(C)CC=C2C(C)C [Compound 157]
2 | (118) % | 6000 | > 10000 | 0.7 | 4 | 13 | (112) % | 6 | 2 | 109 | – | – | – | – | – | – | CCN(c1ccc2c(c1)C(C(C)C)=CCC2(C)C)c1ccc(C(=O)O)cn1 [Compound 172, 6-[Ethyl-(8-isopropyl5,5-dimethyl-5,6-dihydro-naphthalen-2-yl)-amino]-nicotinic acid]

— US20030166932A1 (priority 2002, published 2003)
